The supplement of paper PMC10627819
Converted amounts (≈) assume the structure as drawn.

Legend:
B. subtilis 168 [1] = tested on: B. subtilis 168
S. aureus Newman [2] = tested on: S. aureus Newman
S. aureus DSM 20231 [3] = tested on: S. aureus DSM 20231
S. pneumoniae D39V [4] = tested on: S. pneumoniae D39V
B. subtilis 168 [5] = assay: fitness (endpoint OD595 vs no drug) (fraction); higher = more growth
In short: (§1)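 At 37 °C, bacteria in TSB, LB Lennox or CY were grown in 384-well plates from a starting OD595 of 0.01. OD595 was measured every 30 min for 14 h, with the first reading used as background. Fitness is the optical density at the switch to stationary phase as a fraction of the robust mean of no-drug control wells, capped at 1.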

S. aureus Newman [6] = assay: as above
In short: as §1

S. aureus DSM 20231 [7] = assay: as above
In short: as §1

S. pneumoniae D39V [8] = assay: as above
In short: as §1

B. subtilis 168 [9] = assay: Bliss interaction score (quartile over a dose matrix) (fitness difference); higher = more antagonism (negative = synergy)
In short: (§2)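 Quartiles of the Bliss score were taken over technical, biological and donor/recipient replicates. That score is observed fitness minus the product of the single-drug fitness values, which were inferred from combination data. Fitness itself is OD595 at entry into stationary phase divided by the plate's robust no-drug mean, with a cap at 1.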

S. aureus Newman [10] = assay: as above
In short: as §2

S. aureus DSM 20231 [11] = assay: as above
In short: as §2

S. pneumoniae D39V [12] = assay: as above
In short: as §2
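Wherever Bliss interaction score (quartile over a dose matrix) is given: first quartile when negative (synergy) and third quartile when positive (antagonism).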

CC[C@H](C)[C@H](N)C1=N[C@H](C(=O)N[C@@H](CC(C)C)C(=O)N[C@H](CCC(=O)O)C(=O)N[C@H](C(=O)N[C@H]2CCCCNC(=O)[C@H](CC(N)=O)NC(=O)[C@@H](CC(=O)O)NC(=O)[C@H](Cc3cnc[nH]3)NC(=O)[C@@H](Cc3ccccc3)NC(=O)[C@H]([C@@H](C)CC)NC(=O)[C@@H](CCCN)NC2=O)[C@@H](C)CC)CS1 [Bacitracin]
main component drawn
Conditions	MIC [µg/mL]
B. subtilis 168 [1]	300 (≈ 211 µM)
S. aureus DSM 20231 [3]	80 (≈ 56.2 µM)
S. aureus Newman [2]	75 (≈ 52.7 µM)
S. pneumoniae D39V [4]	1.17 (≈ 0.824 µM)

fitness, main component drawn
Conditions	18.75 µg/mL	37.5 µg/mL	75 µg/mL	150 µg/mL
B. subtilis 168 [5]	–	0.936	0.912	0.802
S. aureus DSM 20231 [7]	0.628	0.0499	0.0064	–
S. aureus Newman [6]	0.683	0.275	0	–

CC[C@H]1OC(=O)[C@H](C)[C@@H](O[C@H]2C[C@@](C)(OC)[C@@H](O)[C@H](C)O2)[C@H](C)[C@@H](O[C@@H]2O[C@H](C)C[C@H](N(C)C)[C@H]2O)[C@](C)(O)C[C@@H](C)C(=O)[C@H](C)[C@@H](O)[C@]1(C)O [Erythromycin]
Conditions	MIC [µg/mL]
S. aureus DSM 20231 [3]	0.5 (≈ 0.681 µM)
S. aureus Newman [2]	0.5 (≈ 0.681 µM)
S. pneumoniae D39V [4]	0.123 (≈ 0.168 µM)

fitness
Conditions	0.0312 µg/mL	0.0625 µg/mL	0.125 µg/mL	0.25 µg/mL	0.5 µg/mL
B. subtilis 168 [5]	0.926	0.704	0.0499	0.0212	–
S. aureus Newman [6]	0.964	0.889	0.594	0.111	0.0101

CC(=O)NC[C@H]1CN(c2ccc(N3CCOCC3)c(F)c2)C(=O)O1 [Linezolid]
Conditions	MIC [µg/mL]
B. subtilis 168 [1]	0.5 (≈ 1.48 µM)

fitness
Conditions	0.125 µg/mL	0.2 µg/mL	0.25 µg/mL	0.4 µg/mL	0.5 µg/mL	0.8 µg/mL
B. subtilis 168 [5]	0.722	–	0.239	–	0.0555	–
S. aureus DSM 20231 [7]	0.923	–	0.648	–	0.16	–
S. pneumoniae D39V [8]	–	0.665	–	0.412	–	0.227

CO[C@@]12[C@H](COC(N)=O)C3=C(C(=O)C(C)=C(N)C3=O)N1C[C@@H]1N[C@@H]12 [Mitomycin C]
Conditions	MIC [µg/mL]
B. subtilis 168 [1]	0.25 (≈ 0.748 µM)
S. aureus DSM 20231 [3]	0.069 (≈ 0.206 µM)
S. aureus Newman [2]	0.069 (≈ 0.206 µM)
S. pneumoniae D39V [4]	0.062 (≈ 0.185 µM)

Conditions	fitness
B. subtilis 168 [5], 0.0312 µg/mL	0.78
B. subtilis 168 [5], 0.0625 µg/mL	0.582
B. subtilis 168 [5], 0.125 µg/mL	0.0244
S. aureus DSM 20231 [7], 0.0156 µg/mL	0.844
S. aureus DSM 20231 [7], 0.0312 µg/mL	0.775
S. aureus DSM 20231 [7], 0.0625 µg/mL	0.59
S. aureus DSM 20231 [7], 0.1562 µg/mL	0.886
S. aureus Newman [6], 0.0156 µg/mL	0.71
S. aureus Newman [6], 0.0312 µg/mL	0.618
S. aureus Newman [6], 0.0625 µg/mL	0.452
S. pneumoniae D39V [8], 0.002 µg/mL	0.823
S. pneumoniae D39V [8], 0.004 µg/mL	0.754
S. pneumoniae D39V [8], 0.008 µg/mL	0.554

CO[C@@H]1[C@@H](OC(N)=O)[C@@H](O)[C@H](Oc2ccc3c(O)c(NC(=O)c4ccc(O)c(CC=C(C)C)c4)c(=O)oc3c2C)OC1(C)C [Novobiocin]
Conditions	MIC [µg/mL]
S. aureus DSM 20231 [3]	0.05 (≈ 0.0816 µM)
S. aureus Newman [2]	0.05 (≈ 0.0816 µM)
S. pneumoniae D39V [4]	2.5 (≈ 4.08 µM)

B. subtilis 168 [5]
Conditions	fitness
0.0125 µg/mL	0.921
0.025 µg/mL	0.956
0.05 µg/mL	0.986
0.1 µg/mL	0.993
0.2 µg/mL	≥ 1

CN[C@H](CC(C)C)C(=O)N[C@H]1C(=O)N[C@@H](CC(N)=O)C(=O)N[C@H]2C(=O)N[C@H]3C(=O)N[C@H](C(=O)N[C@H](C(=O)O)c4cc(O)cc(O)c4-c4cc3ccc4O)[C@H](O[C@H]3C[C@](C)(N)[C@@H](O)[C@H](C)O3)c3ccc(c(Cl)c3)Oc3cc2cc(c3O[C@@H]2O[C@H](CO)[C@@H](O)[C@H](O)[C@H]2O[C@H]2C[C@](C)(NCc3ccc(-c4ccc(Cl)cc4)cc3)[C@@H](O)[C@H](C)O2)Oc2ccc(cc2Cl)[C@H]1O [Oritavancin]
Conditions	MIC [µg/mL]
S. aureus DSM 20231 [3]	4.5 (≈ 2.51 µM)
S. aureus Newman [2]	4.5 (≈ 2.51 µM)

CO[C@H]1/C=C/O[C@@]2(C)Oc3c(C)c(O)c4c(O)c(c(/C=N/N5CCN(C)CC5)c(O)c4c3C2=O)NC(=O)/C(C)=C\C=C\[C@H](C)[C@H](O)[C@@H](C)[C@@H](O)[C@@H](C)[C@H](OC(C)=O)[C@@H]1C [Rifampicin]
Conditions	MIC [µg/mL]
B. subtilis 168 [1]	0.125 (≈ 0.152 µM)
S. aureus DSM 20231 [3]	0.018 (≈ 0.0219 µM)
S. aureus Newman [2]	0.035 (≈ 0.0425 µM)
S. pneumoniae D39V [4]	0.4 (≈ 0.486 µM)

S. pneumoniae D39V [8]
Conditions	fitness
0.025 µg/mL	0.961
0.05 µg/mL	0.904
0.1 µg/mL	0.322
0.2 µg/mL	0.144

CN[C@@H]1[C@H](O)[C@H](NC)[C@H]2O[C@@]3(O)C(=O)C[C@@H](C)O[C@H]3O[C@@H]2[C@H]1O [Spectinomycin]
Conditions	MIC [µg/mL]
B. subtilis 168 [1]	8 (≈ 24.1 µM)
S. aureus DSM 20231 [3]	16 (≈ 48.1 µM)
S. aureus Newman [2]	16 (≈ 48.1 µM)
S. pneumoniae D39V [4]	64 (≈ 193 µM)

fitness
Conditions	B. subtilis 168 [5]	S. aureus DSM 20231 [7]	S. aureus Newman [6]	S. pneumoniae D39V [8]
2 µg/mL	0.992	–	–	–
4 µg/mL	0.964	0.966	0.963	0.956
8 µg/mL	0.941	0.961	0.93	0.865
16 µg/mL	–	0.851	0.893	0.702

CN[C@@H]1[C@H](O)[C@H](NC)[C@H]2O[C@@]3(O)C(=O)C[C@@H](C)O[C@H]3O[C@@H]2[C@H]1O [Spectinomycin] + CC1=C\[C@@H](O)CC(=O)Cc2nc(co2)C(=O)N2CCC=C2C(=O)O[C@H](C(C)C)[C@H](C)/C=C/C(=O)NC\C=C\1 [Virginiamycin M1]
Conditions	Bliss interaction score
B. subtilis 168 [9]	0.042
S. aureus DSM 20231 [11]	-0.0719
S. aureus Newman [10]	0.0692
S. pneumoniae D39V [12]	0.052

fitness
Conditions	first compound 2 µg/mL	first compound 4 µg/mL	first compound 8 µg/mL	first compound 16 µg/mL
B. subtilis 168 [5], partner 0.0625 µg/mL	0.916	0.979	0.915	–
B. subtilis 168 [5], partner 0.125 µg/mL	0.982	0.941	0.947	–
B. subtilis 168 [5], partner 0.25 µg/mL	≥ 1	0.972	0.875	–
S. aureus DSM 20231 [7], partner 0.0625 µg/mL	–	0.933	0.993	0.809
S. aureus DSM 20231 [7], partner 0.125 µg/mL	–	≥ 1	0.896	0.83
S. aureus DSM 20231 [7], partner 0.25 µg/mL	–	0.961	0.873	0.791
S. aureus Newman [6], partner 0.0625 µg/mL	–	0.936	0.997	0.934
S. aureus Newman [6], partner 0.125 µg/mL	–	0.944	≥ 1	0.961
S. aureus Newman [6], partner 0.25 µg/mL	–	0.942	≥ 1	0.937
S. pneumoniae D39V [8], partner 0.5 µg/mL	–	0.972	0.93	–
S. pneumoniae D39V [8], partner 1 µg/mL	–	0.96	0.916	–
S. pneumoniae D39V [8], partner 2 µg/mL	–	0.931	0.889	0.8

fitness, one replicate
Conditions	S. aureus DSM 20231 [7]	S. aureus Newman [6]	S. pneumoniae D39V [8]
first compound 4 µg/mL, partner 0.15 µg/mL	–	–	≥ 1
first compound 4 µg/mL, partner 0.3 µg/mL	–	–	0.939
first compound 4 µg/mL, partner 0.5 µg/mL	0.769	0.839	–
first compound 4 µg/mL, partner 1 µg/mL	0.735	0.882	–
first compound 4 µg/mL, partner 2 µg/mL	–	0.769	–
first compound 8 µg/mL, partner 0.15 µg/mL	–	–	0.944
first compound 8 µg/mL, partner 0.3 µg/mL	–	–	0.927
first compound 8 µg/mL, partner 0.5 µg/mL	0.735	0.817	–
first compound 8 µg/mL, partner 1 µg/mL	0.691	0.887	–
first compound 8 µg/mL, partner 2 µg/mL	–	0.787	–
first compound 16 µg/mL, partner 0.15 µg/mL	–	–	0.894
first compound 16 µg/mL, partner 0.3 µg/mL	–	–	0.93
first compound 16 µg/mL, partner 0.5 µg/mL	0.65	0.876	0.857
first compound 16 µg/mL, partner 1 µg/mL	0.704	0.777	0.731
first compound 16 µg/mL, partner 2 µg/mL	–	0.686	–
first compound 32 µg/mL, partner 0.0625 µg/mL	0.643	0.654	–
first compound 32 µg/mL, partner 0.125 µg/mL	0.736	0.629	–
first compound 32 µg/mL, partner 0.25 µg/mL	0.637	0.602	–
first compound 64 µg/mL, partner 0.0625 µg/mL	0.0659	0.0794	–
first compound 64 µg/mL, partner 0.125 µg/mL	0.0603	0.124	–
first compound 64 µg/mL, partner 0.25 µg/mL	0.0858	0.124	–
